Active and inactive are the calls of the source.
Assays:
[1] = biological target: Glyceraldehyde-3-phosphate dehydrogenase (Homo sapiens, UniProt P04406)
[2] = biological target: Alkaline phosphatase, placental type (Homo sapiens, UniProt P05187); experiment: human placental alkaline phosphatase inhibition – biochemical, luminescence, confirmation (AID 1512); format: functional
[3] = biological target: T1, Alkaline phosphatase, tissue-nonspecific isozyme (Homo sapiens, UniProt P05186); experiment: potency against alkaline phosphatase TNAP – biochemical, luminescent, dose response, SAR follow-up (AID 1056)
T1 sequence (P05186 whole entry): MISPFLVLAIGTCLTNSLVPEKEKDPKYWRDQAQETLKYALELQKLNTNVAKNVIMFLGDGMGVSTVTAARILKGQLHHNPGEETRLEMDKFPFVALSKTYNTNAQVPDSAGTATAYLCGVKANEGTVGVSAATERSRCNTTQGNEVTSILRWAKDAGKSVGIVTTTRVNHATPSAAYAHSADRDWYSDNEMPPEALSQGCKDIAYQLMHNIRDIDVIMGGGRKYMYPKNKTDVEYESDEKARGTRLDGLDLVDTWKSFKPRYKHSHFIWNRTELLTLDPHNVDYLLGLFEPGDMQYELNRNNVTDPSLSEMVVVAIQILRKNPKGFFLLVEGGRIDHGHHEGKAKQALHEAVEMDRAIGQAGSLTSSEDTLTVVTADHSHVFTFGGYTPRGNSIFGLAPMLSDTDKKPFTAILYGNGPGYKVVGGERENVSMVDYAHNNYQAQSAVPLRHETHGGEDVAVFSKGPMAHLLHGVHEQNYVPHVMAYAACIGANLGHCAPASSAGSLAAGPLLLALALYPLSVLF

Trypsin = Trypsin (Sus scrofa, UniProt P00761); experiment: trypsin protease activity blockade – biochemical, quenched peptide fluorescence, cherry-pick, selectivity assay for Rce1 protease inhibitor project, dose response (AID 488789)
CAAX prenyl protease 2 = CAAX prenyl protease 2 (Saccharomyces cerevisiae S288c, UniProt Q03530); format: biochemical
[4] = biological target: Eukaryotic translation initiation factor 4E (Mus musculus, UniProt P63073); experiment: blockers of eIF4G binding by eIF4E – biochemical, TR-FRET, dose response (AID 855); format: functional;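 further: potency for disrupting eIF4E binding to eIF4GI seen as loss of FRET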
[5] = decrease of insulin promoter-GFP reporter – imaging, high-content screening, mouse beta cells (AID 1628); format: functional; conditions: MIN6
[6] = MIN6 cell viability loss – mouse insulinoma, cytotoxicity control, dose response (AID 2122); format: functional;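 further: confirmatory high-throughput counterscreen run to flag cytotoxic compounds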
[7] = Trypanosoma cruzi growth suppression in host cells – NIH3T3 host cells, beta-gal luminescence, confirmation (AID 2044); format: functional, cell-based;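 further: intracellular parasites grown in NIH/3T3 mouse fibroblasts as host cells; luminescent beta-galactosidase reporter signal from transgenic T. cruzi replicating inside host cells; inhibitors lower the luminescence signal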
[8] = NIH3T3 cell viability loss – ATP luminescence, mouse fibroblasts, counter-screen, dose response (AID 2010); format: functional, cell-based;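 further: cells exposed to compound for about 90 hours before reading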
INS1 = experiment: INS-1E survival protection against cytokine death – cell-based, luminescence, retest, dose response (AID 449756); format: functional; conditions: Rattus norvegicus;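 further: cell death triggered by IL-1 beta plus TNF-alpha plus IFN-gamma mixture; protective hits raise ATP signal compared with cytokine alone wells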
[9] = biological target: Voltage-dependent T-type calcium channel subunit alpha-1H (Homo sapiens, UniProt O95180); format: functional;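 further: channel activity triggered by adding a high calcium stimulation buffer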
[10] = toxicity toward cultured mammalian cells – cell-based, plate reader, cherry-pick samples, cytotoxicity control, dose response (AID 504397); format: functional
[11] = tested on: Streptococcus sp. 'group A'; experiment: Streptococcus pyogenes SK(-)GAS viability under kanamycin – luminescence, BacTiterGlo, confirmation, counter-screen for streptokinase expression inhibitor project, dose response (AID 1900); format: functional, organism-based
Streptokinase A = biological target: T2, Streptokinase A (Streptococcus pyogenes serotype M1, UniProt P10520); experiment: viability-normalized secreted streptokinase activity reduction – plasminogen activation absorbance, OD405, dose response (AID 1914); format: functional, Streptococcus pyogenes M1 GAS;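 further: secreted streptokinase activity via plasminogen activation per viability signal from cell pellet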
T2 sequence (P10520 whole entry): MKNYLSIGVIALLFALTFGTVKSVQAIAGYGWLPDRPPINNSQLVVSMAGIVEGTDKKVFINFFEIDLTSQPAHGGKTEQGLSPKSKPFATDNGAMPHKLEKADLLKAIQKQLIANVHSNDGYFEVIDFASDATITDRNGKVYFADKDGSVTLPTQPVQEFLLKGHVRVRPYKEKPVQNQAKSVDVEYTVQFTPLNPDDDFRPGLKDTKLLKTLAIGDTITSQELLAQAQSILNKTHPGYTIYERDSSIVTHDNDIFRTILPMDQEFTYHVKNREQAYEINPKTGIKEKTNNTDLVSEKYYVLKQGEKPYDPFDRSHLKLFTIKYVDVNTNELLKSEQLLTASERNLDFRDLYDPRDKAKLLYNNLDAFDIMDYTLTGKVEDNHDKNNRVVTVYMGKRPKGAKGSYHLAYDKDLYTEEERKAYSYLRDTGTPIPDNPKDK

[12] = microbe, parasite or virus in culture; format: functional; conditions: Mycobacterium tuberculosis
Streptococcus = experiment: GAS UMAA2166 growth inhibition – luminescence, BacTiterGlo, counter-screen for streptokinase expression inhibitor project, dose response (AID 1915); format: functional, organism-based;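 further: potency for reduction of bacterial viability or growth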
[13] = biological target: Neurotensin receptor type 1 (Homo sapiens, UniProt P30989); format: functional;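 further: Image-based confirmatory dose-response assay measuring agonist activity at NTR1; NTR1-expressing U2OS osteosarcoma cells imaged for beta-arrestin GFP spot formation; agonist potency where compounds increase beta-arrestin recruitment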
[14] = reduction of Shn3 3'UTR-driven luciferase in osteoblasts – cell-based, Clone20 osteoblasts, firefly luciferase, cherry-picked, dose response (AID 624132); format: functional;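 further: firefly luciferase luminescence from reporter carrying the Shn3 3'UTR in osteoblasts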
[15] = loss of viability in HepG2 cells – cell-based, CellTiter-Glo, cherry-picked, cytotoxicity control for Shn3 inhibitor project, dose response (AID 624134); format: functional
[16] = non-specific 3'UTR reporter inhibition in Clone20-Shn3RL – cell-based, Renilla luciferase, cherry-picked, counter-screen for Shn3 inhibitor project, dose response (AID 624133); format: functional
[17] = viability loss in THP-1 monocytes – THP-1 cells, cytotoxicity control for Vif-APOBEC3G degradation inhibitor project, dose response (AID 1117359); format: functional; conditions: THP-1

Chain of Neurotensin receptor type 1 (P30989 whole entry): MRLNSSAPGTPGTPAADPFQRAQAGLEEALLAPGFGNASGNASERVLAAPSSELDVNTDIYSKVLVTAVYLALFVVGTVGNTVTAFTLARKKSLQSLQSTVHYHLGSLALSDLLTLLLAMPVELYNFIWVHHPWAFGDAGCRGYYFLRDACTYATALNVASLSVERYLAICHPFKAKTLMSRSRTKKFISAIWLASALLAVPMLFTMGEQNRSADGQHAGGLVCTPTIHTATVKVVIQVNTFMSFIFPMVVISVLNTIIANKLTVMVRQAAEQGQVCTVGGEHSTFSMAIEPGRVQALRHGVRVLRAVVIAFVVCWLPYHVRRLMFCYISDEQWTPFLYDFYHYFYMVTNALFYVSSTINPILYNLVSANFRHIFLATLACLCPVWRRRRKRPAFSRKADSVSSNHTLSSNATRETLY
Chain of Trypsin (P00761 whole entry): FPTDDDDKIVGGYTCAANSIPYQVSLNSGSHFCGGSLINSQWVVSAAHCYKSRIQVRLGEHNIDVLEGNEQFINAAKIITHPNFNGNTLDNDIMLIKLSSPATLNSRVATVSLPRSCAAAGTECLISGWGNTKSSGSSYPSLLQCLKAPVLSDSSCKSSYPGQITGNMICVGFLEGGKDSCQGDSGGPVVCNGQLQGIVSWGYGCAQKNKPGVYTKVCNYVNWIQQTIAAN
Chain of Voltage-dependent T-type calcium channel subunit alpha-1H (O95180 whole entry): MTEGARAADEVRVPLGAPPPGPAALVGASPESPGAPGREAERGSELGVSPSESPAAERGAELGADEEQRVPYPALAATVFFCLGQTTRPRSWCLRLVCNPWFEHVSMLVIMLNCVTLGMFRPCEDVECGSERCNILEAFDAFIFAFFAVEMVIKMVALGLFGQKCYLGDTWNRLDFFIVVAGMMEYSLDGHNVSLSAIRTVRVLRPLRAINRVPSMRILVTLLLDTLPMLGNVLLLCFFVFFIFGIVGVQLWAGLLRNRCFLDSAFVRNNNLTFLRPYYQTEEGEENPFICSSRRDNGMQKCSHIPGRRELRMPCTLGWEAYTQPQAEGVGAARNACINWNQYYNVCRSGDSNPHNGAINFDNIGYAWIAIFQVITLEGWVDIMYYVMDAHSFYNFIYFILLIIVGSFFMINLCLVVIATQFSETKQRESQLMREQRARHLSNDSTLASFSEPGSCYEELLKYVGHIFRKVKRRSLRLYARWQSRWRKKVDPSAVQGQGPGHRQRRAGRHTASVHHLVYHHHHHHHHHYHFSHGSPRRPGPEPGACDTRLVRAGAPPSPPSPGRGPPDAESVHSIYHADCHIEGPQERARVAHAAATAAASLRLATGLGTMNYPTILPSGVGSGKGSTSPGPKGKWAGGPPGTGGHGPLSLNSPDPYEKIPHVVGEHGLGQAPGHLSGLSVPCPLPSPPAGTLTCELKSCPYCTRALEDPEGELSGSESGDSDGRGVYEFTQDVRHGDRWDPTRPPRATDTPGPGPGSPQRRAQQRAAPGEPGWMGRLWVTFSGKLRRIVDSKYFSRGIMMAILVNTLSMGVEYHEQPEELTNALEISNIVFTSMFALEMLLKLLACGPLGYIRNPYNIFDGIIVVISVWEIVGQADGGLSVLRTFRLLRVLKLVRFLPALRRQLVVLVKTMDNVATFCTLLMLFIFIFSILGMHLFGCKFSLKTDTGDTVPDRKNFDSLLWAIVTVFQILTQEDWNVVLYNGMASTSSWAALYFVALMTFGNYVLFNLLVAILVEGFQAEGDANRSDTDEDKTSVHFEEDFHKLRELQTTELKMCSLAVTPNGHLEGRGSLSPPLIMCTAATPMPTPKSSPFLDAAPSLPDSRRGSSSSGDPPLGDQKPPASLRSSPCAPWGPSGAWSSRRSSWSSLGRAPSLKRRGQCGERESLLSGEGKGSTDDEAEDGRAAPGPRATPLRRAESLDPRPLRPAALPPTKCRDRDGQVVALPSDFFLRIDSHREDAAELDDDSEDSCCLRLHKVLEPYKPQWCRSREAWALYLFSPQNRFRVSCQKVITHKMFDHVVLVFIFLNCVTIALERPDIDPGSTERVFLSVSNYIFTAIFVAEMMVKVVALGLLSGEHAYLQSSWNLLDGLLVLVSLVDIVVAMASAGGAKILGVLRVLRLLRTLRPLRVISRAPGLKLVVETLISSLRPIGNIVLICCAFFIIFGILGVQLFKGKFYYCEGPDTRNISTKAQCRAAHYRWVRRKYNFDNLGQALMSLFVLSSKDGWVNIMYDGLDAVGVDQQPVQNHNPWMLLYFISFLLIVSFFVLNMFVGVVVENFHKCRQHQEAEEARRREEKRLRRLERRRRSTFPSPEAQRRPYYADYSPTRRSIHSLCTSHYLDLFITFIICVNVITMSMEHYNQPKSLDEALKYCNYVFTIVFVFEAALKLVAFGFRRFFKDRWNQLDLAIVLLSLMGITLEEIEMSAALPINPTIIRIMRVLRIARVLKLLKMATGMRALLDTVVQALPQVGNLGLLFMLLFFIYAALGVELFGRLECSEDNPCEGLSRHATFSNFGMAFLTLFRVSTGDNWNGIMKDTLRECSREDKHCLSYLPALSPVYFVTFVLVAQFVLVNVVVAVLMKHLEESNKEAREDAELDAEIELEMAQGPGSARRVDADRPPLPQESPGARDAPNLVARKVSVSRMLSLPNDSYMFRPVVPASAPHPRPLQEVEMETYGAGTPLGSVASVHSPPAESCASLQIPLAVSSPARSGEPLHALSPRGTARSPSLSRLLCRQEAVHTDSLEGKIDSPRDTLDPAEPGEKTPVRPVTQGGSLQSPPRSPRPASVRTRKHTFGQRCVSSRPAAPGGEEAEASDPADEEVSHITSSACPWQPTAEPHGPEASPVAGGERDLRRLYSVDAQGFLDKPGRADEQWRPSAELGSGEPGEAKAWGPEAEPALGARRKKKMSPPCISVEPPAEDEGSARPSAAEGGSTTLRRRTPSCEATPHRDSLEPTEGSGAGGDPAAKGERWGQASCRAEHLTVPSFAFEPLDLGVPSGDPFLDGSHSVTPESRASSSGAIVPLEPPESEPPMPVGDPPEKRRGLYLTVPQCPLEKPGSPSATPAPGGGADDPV
Chain of Eukaryotic translation initiation factor 4E (P63073 whole entry): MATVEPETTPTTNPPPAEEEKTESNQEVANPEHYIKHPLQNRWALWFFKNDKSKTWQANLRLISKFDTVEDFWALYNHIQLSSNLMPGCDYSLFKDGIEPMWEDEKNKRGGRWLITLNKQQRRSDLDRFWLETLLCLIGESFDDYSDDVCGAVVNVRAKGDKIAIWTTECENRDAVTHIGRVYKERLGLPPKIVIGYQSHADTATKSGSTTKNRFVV
Chain of Glyceraldehyde-3-phosphate dehydrogenase (P04406 whole entry): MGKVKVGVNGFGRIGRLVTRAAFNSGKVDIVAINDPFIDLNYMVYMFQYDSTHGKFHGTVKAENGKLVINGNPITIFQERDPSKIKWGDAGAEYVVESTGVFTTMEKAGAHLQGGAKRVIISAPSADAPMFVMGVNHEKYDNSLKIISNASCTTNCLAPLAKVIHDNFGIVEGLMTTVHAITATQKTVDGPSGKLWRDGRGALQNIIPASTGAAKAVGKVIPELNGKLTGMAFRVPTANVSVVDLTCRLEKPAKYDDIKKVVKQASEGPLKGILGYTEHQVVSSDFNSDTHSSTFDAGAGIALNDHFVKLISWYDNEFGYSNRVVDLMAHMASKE
Chain of CAAX prenyl protease 2 (Q03530 whole entry): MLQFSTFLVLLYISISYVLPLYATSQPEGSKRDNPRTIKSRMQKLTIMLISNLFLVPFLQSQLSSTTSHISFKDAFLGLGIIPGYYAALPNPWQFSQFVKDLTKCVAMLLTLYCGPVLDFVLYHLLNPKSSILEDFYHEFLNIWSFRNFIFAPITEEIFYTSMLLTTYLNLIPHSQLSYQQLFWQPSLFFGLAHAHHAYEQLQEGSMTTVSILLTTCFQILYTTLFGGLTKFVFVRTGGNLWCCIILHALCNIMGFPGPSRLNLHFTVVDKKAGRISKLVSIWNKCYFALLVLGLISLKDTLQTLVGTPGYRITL
Chain of Alkaline phosphatase, placental type (P05187 whole entry): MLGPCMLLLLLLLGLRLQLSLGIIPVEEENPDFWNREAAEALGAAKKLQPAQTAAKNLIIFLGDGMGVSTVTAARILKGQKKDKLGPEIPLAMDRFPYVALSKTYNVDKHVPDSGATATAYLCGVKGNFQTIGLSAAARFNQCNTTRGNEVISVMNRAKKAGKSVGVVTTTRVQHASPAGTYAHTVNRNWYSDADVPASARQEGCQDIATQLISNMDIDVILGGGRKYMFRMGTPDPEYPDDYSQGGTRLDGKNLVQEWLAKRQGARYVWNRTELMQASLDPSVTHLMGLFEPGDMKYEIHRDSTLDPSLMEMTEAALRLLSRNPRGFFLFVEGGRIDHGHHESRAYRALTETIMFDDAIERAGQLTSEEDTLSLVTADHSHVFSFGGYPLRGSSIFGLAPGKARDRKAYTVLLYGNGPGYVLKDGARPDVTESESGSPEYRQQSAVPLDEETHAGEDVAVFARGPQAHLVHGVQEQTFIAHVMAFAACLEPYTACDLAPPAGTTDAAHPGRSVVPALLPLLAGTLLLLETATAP

SMILES: COc1cc(CCc2nc(N)nn2-c2ccccc2)cc(OC)c1OC
- IC50 [1]: > 100 µM (not active)
- IC50 [2]: > 100 µM (inactive)
- IC50 [3]: > 100 µM (inactive)

SMILES: N#Cc1c(Cl)nc(Cl)c2c1CCN(Cc1ccccc1)C2
- AC50 (Trypsin): 7.02 µM (active)
- AC50 (CAAX prenyl protease 2): 22.8 µM (active)

SMILES: Cc1ccc(NC(=O)CN2C(=O)S/C(=C/c3ccc(-c4cccc(C(=O)O)c4)o3)C2=O)cc1
- IC50 [4]: 50 µM (inactive)

SMILES: Cc1ccc(-c2cn3c([n+]2-c2ccccc2)CCC3)cc1
- IC50 [5]: < 0.25 µM (active)
- IC50 [6]: < 0.25 µM (active)
- EC50 [7]: 0.94 µM (active)
- EC50 [8]: > 60 µM (not active)
- AC50 (INS1): 2.5 µM (active)

SMILES: O=C(CN(C1CCCCC1)C1CCCCC1)N1CCc2ccccc2C1
- EC50 [9]: 4.36 µM (active)
- AC50 [10]: 204 µM (active)

SMILES: Cc1cc(C)n(-c2nc(Nc3ccccc3C(F)(F)F)nc(-n3nc(C)cc3C)n2)n1
- EC50 [11]: 5.15 µM (active)
- EC50 (Streptokinase A): > 150 µM (not active)
- CC50 [12]: 12.4 µM (active)
- EC50 (Streptococcus): 8.12 µM (active)
- EC50 [13]: 26 µM (inactive)
- AC50 (INS1): 4.01 µM (active)
- AC50 [14]: 5.49 µM (active)
- AC50 [15]: 58.1 µM (active)
- AC50 [16]: 5.19 µM (active)
- CC50 [17]: 3.77 µM (active)

SMILES: Cc1ccc(-c2cc(C(F)F)n3ncc(C(=O)NN4CCCCC4)c3n2)cc1
- IC50 [5]: 2.39 µM (active)
- IC50 [6]: 6.4 µM (active)

Source: ChEMBL document CHEMBL1201862, “PubChem BioAssay data set” (2004)
